Measurements reported in ChEMBL document CHEMBL1158593, “Structure-activity relationships in human toll-like receptor 7-active imidazoquinoline analogues” (J Med Chem, 2010).

biological target: T1, Toll-like receptor 7 (Homo sapiens, UniProt Q9NYK1)
T1 sequence (Q9NYK1 whole entry): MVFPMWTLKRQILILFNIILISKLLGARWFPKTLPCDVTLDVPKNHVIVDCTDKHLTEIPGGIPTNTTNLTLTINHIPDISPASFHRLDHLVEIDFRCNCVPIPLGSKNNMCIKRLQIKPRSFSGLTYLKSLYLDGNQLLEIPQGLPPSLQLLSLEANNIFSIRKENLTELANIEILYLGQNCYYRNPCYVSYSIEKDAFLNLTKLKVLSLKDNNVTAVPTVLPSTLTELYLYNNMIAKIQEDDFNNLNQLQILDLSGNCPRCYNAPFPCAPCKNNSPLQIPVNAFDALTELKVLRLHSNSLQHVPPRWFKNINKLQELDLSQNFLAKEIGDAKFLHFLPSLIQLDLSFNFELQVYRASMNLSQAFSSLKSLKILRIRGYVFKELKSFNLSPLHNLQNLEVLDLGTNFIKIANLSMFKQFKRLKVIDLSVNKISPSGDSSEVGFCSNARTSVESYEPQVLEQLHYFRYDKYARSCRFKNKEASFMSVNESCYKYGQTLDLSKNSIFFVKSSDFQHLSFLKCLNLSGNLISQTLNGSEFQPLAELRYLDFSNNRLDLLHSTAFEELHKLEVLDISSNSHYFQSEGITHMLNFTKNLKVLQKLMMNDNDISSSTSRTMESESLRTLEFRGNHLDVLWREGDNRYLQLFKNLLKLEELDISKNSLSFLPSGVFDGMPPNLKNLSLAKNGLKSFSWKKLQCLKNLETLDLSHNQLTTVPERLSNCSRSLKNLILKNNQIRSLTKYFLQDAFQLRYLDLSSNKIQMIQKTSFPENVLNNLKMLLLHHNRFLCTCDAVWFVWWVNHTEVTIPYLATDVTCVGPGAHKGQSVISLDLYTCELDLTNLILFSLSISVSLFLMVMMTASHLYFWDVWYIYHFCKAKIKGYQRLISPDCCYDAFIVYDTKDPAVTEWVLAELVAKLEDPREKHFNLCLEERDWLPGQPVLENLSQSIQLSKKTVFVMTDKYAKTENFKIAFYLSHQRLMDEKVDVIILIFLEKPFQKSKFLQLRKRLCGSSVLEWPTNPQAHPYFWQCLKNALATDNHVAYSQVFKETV
Description: Agonist activity at human TLR7 expressed in NF-kappaB-stimulated HEK293 cells assessed as induction of secreted alkaline phosphatase expression by reporter gene assay

| Compound | EC50 |
| --- | --- |
| Cc1nc2c(N)nc3ccccc3c2n1Cc1ccccc1 | 955 nM |
| CCCCc1nc2c(NO)nc3ccccc3c2n1Cc1ccccc1 | 723 nM |
| CCCCc1nc2c(NN)nc3ccccc3c2n1Cc1ccccc1 | 873 nM |
| CCN(CC)Cc1nc2c(N)nc3ccccc3c2n1CC(C)(C)O | 7710 nM |
| CCCCCCc1nc2c(N)nc3ccccc3c2n1Cc1ccccc1 | 479 nM |
| C=CCCc1nc2c(N)nc3ccccc3c2n1Cc1ccccc1 | 262 nM |
| C#CCCc1nc2c(N)nc3ccccc3c2n1Cc1ccccc1 | 209 nM |
| CCNCc1nc2c(N)nc3ccccc3c2n1Cc1ccccc1 | 385 nM |
| CCCCCCCCCc1nc2c(N)nc3ccccc3c2n1Cc1ccccc1 | 3350 nM |
| CCc1nc2c(N)nc3ccccc3c2n1Cc1ccccc1 | 472 nM |
| CCN(CCC#N)Cc1nc2c(N)nc3ccccc3c2n1CC(C)(C)O | 8390 nM |
| CCCc1nc2c(N)nc3ccccc3c2n1Cc1ccccc1 | 647 nM |
| CCCCCCCc1nc2c(N)nc3ccccc3c2n1Cc1ccccc1 | 822 nM |
| CCCCc1nc2c(N)nc3ccccc3c2n1Cc1ccccc1 | 59.1 nM |
| CCCCCc1nc2c(N)nc3ccccc3c2n1Cc1ccccc1 | 91.5 nM |
| CC(C)Cn1cnc2c(N)nc3ccccc3c21 [IMIQUIMOD] | 2120 nM |
